Reference: patent US20110251428A1 (priority 2006, published 2011)
“Also recorded” adds a separate entry of the source.

Experiments:
yeast [PSI^+] prion [1] = assay type: cell-based
yeast [PSI^+] prion [2] = settings: cited from earlier work
[URE3] prion = assay type: cell-based

SMILES	activity against yeast [PSI+] prion (halo of red colonies) (yeast [PSI^+] prion [1])	activity in the yeast-based method (earlier study) (yeast [PSI^+] prion [2])	other results
N=C(N)N/N=C/c1c(Cl)ccc(Cl)c1Cl [PSI210]	strongest activity; also recorded: more potent than Guanabenz itself	–	–
CCN(CC)CCCC(C)Nc1c2ccc(Cl)cc2nc2ccc(OC)cc12 (stereo not drawn) [quinacrine]	–	active	–
Clc1cccc(Cl)c1N=C1NCCN1 [Clonidine]	–	–	anti-prion activity (data not shown) (yeast [PSI^+] prion [1]): did not exhibit any anti-prion activity
CN(C)CCCN1c2ccccc2Sc2ccc(Cl)cc21 [chlorpromazine]	–	active	–
CC(=O)O.N=C(N)N/N=C/c1c(Cl)cccc1Cl [Guanabenz acetate]	strongly active; also recorded: very active	–	activity against [URE3] prion ([URE3] prion): also active; also recorded: also very active
